# Measurements published in patent publication US20240059698A1 (Accutar Biotechnology Inc., priority 2022, published 2024).
# Tests used:
# Assay type in all cases: cell-based
# A431 cells = experiment: Cell growth inhibition (CellTiter-Glo), A431; details: Homo sapiens, A-431, 72 h, 3 days
# Summary of the method: (§1)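 HCC827 cells in RPMI and A431 cells in DMEM (both 10% FBS) were seeded at 5000 cells/well and left overnight. They were then exposed to compound dilutions for 3 days at 37° C. Viability was read by CellTiter-Glo luminescence.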
# HCC827 cells = experiment: Cell growth inhibition (CellTiter-Glo), HCC827; details: Homo sapiens, 72 h, 3 days
# Summary of the method: as §1
# [1] = test system: HCC827-ASV cells (human EGFR exon 20 insertion mutant V769_D770insASV); experiment: Cell growth inhibition (CellTiter-Glo), HCC827-ASV; details: 72 h, HCC827-ASV cells, 3 days, CellTiter-Glo, read-out: Cell growth inhibition, GI50 (nM) HCC827-ASV
# Method: Generation of HCC827-SVD, HCC827-ASV, and HCC827-YVMA cell lines. The HCC827-SVD cell line was generated by first transducing HCC827 cells (ATCC) with lentiviral particles expressing codon-optimized human EGFR exon 20 insertion mutant D770_N771insSVD, and then selecting under 5 µg/mL puromycin treatment for a week. The resulting cells were further transduced with lentiviral particles carrying EGFR sgRNA and CAS9 to knockout the endogenous alleles of EGER and then selected under 500 µg/mL hygromycin B treatment for two weeks. The limiting dilution approach was used to subsequently generate the single clone of the HCC827-SVD stable cell line. Endogenous EGFR knockout was confirmed by Sanger sequencing of cell genomic DNA, and expression of exogenous mutant EGFR was verified by Western blot analysis.
# HCC827-ASV and HCC827-YVMA cell lines were generated in a similar approach as HCC827-SVD, except that HCC827 cells (ATCC) were first transduced with lentiviral particles expressing codon-optimized human EGFR exon 20 insertion mutant V769_D770insASV and human ERBB2 exon20 insertion mutant A775_G776ins YVMA, respectively.
# 2. Cell Growth Inhibition for HCC827, HCC827-SVD, HCC827-ASV, HCC827-YVMA, and A431.
# HCC827(ATCC), HCC827-SVD, HCC827-ASV, and HCC827-YVMA cells were seeded in 96-well plates at 5000 cells/well in 90 μL of RPMI growth medium containing 10% FBS and 1% Penicillin Streptomycin. A431 (ATCC) cells were seeded in 96-well plates at 5000 cells/well in 90 μL of DMEM growth medium containing 10% FBS and 1% Penicillin Streptomycin. Cells were incubated at 37° C. overnight and then administered with 10 μL 10× test compounds prepared in the growth medium at various concentrations. After administration of the compounds, cells were incubated at 37° C. for 3 days. Before the CellTiter-Glo assay, the plates were equilibrated at room temperature for approximately 30 minutes. 100 ul of CellTiter-Glo reagent (Promega) was added to each well. The plates were then incubated at room temperature for 10 minutes and luminescence was recorded by the EnSight® multimode plate reader (PerkinElmer). Table 7 listed selected compounds in cellular growth assay.
# [2] = test system: HCC827-SVD cells (human EGFR exon 20 insertion mutant D770_N771insSVD); experiment: Cell growth inhibition (CellTiter-Glo), HCC827-SVD; details: 72 h, 3 days
# Summary of the method: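 HCC827 cells with endogenous EGFR knocked out and lentivirally expressing the insertion mutant (single clone) were seeded at 5000 cells/well in RPMI with 10% FBS. After overnight, compounds added; 3 days at 37 °C, then CellTiter-Glo luminescence.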
# [3] = test system: HCC827-YVMA cells (human ERBB2 exon20 insertion mutant A775_G776ins YVMA); experiment: Cell growth inhibition (CellTiter-Glo), HCC827-YVMA; details: 72 h, HCC827-YVMA cells, 3 days, CellTiter-Glo, read-out: Cell growth inhibition, GI50 (nM) HCC827-YVMA
# Summary of the method: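 HCC827 cells transduced with lentiviral codon-optimized mutant (ERBB2 A775_G776insYVMA or EGFR V769_D770insASV), endogenous EGFR knocked out by CRISPR, single clone selected. Cells seeded overnight in RPMI/10% FBS, then exposed to serially diluted compounds at 37 °C for 3 days; viability read by CellTiter-Glo luminescence.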
Structure (SMILES),GI50 (A431 cells) [nM],GI50 (HCC827 cells) [nM],GI50 [1] [nM],GI50 [2] [nM],GI50 [3] [nM]
"C=CC(=O)N1CCC(c2c[nH]c3ncnc(Nc4ccc(Oc5ccnc(N6CCN(C)CC6)c5)cc4F)c23)CC1 [Compound 152, 1-(4-(4-((2-fluoro-4-((2-(4-methylpiperazin-1-yl)pyridin-4-yl)oxy)phenyl)amino)-7H-pyrrolo[2,3-d]pyrimidin-5-yl)piperidin-1-yl)prop-2-en-1-one]",> 1000,> 1000,200 to 1000,200 to 1000,200 to 1000
"C=CC(=O)N1CCC(c2c[nH]c3ncnc(Nc4ccc(Oc5ccn(Cc6cc(C)ccn6)n5)cc4F)c23)CC1 [Compound 157, 1-(4-(4-((2-fluoro-4-((1-((4-methylpyridin-2-yl)methyl)-1H-pyrazol-3-yl)oxy)phenyl)amino)-7H-pyrrolo[2,3-d]pyrimidin-5-yl)piperidin-1-yl)prop-2-en-1-one]",> 1000,200 to 1000,50 to 200,50 to 200,50 to 200
"C=CC(=O)N1CCC(c2n[nH]c3ncnc(Nc4ccc(Oc5ccnc(N6CCC(C(F)(F)F)C6)c5)cc4F)c23)CC1 (centres unmarked) [Compound 173, 1-(4-(4-((2-fluoro-4-((2-(3-(trifluoromethyl)pyrrolidin-1-yl)pyridin-4-yl)oxy)phenyl)amino)-1H-pyrazolo[3,4-d]pyrimidin-3-yl)piperidin-1-yl)prop-2-en-1-one]",> 1000,200 to 1000,< 50,50 to 200,< 50
"C=CC(=O)N1CCC(c2n[nH]c3ncnc(Nc4ccc(Oc5ccnc(N6CCC(F)(F)C6)c5)cc4F)c23)CC1 [Compound 175, 1-(4-(4-((4-((2-(3,3-difluoropyrrolidin-1-yl)pyridin-4-yl)oxy)-2-fluorophenyl)amino)-1H-pyrazolo[3,4-d]pyrimidin-3-yl)piperidin-1-yl)prop-2-en-1-one]",> 1000,> 1000,50 to 200,50 to 200,50 to 200
"C=CC(=O)N1CCC(c2n[nH]c3ncnc(Nc4ccc(Oc5ccnc(N6CC7CC7C6)c5)cc4F)c23)CC1 (centres unmarked) [Compound 180, 1-(4-(4-((4-((2-(3-azabicyclo[3.1.0]hexan-3-yl)pyridin-4-yl)oxy)-2-fluorophenyl)amino)-1H-pyrazolo[3,4-d]pyrimidin-3-yl)piperidin-1-yl)prop-2-en-1-one]",> 1000,200 to 1000,50 to 200,50 to 200,< 50

# The next lines start with the values.
GI50 (A431 cells) [nM],GI50 (HCC827 cells) [nM],GI50 [1] [nM],GI50 [2] [nM],GI50 [3] [nM],Structure (SMILES)
> 1000,> 1000,200 to 1000,> 1000,50 to 200,"C=CC(=O)N1CCC(c2csc3ncnc(Nc4ccc(Oc5ccn(Cc6cc(C)ccn6)n5)cc4F)c23)CC1 [Compound 158, 1-(4-(4-((2-fluoro-4-((1-((4-methylpyridin-2-yl)methyl)-1H-pyrazol-3-yl)oxy)phenyl)amino)thieno[2,3-d]pyrimidin-5-yl)piperidin-1-yl)prop-2-en-1-one]"
> 1000,> 1000,200 to 1000,50 to 200,50 to 200,"C=CC(=O)N1CCC(c2c[nH]c3ncnc(Nc4ccc(Oc5ccnc(N6C[C@@H](C)O[C@@H](C)C6)c5)cc4F)c23)CC1 [Compound 155, 1-(4-(4-((4-((2-((2S,6R)-2,6-dimethylmorpholino)pyridin-4-yl)oxy)-2-fluorophenyl)amino)-7H-pyrrolo[2,3-d]pyrimidin-5-yl)piperidin-1-yl)prop-2-en-1-one]"
> 1000,200 to 1000,< 50,50 to 200,< 50,"C=CC(=O)N1CCC(c2c[nH]c3ncnc(Nc4ccc(Oc5ccnc(-n6ccc(OC)n6)c5)cc4F)c23)CC1 [Compound 136, 1-(4-(4-((2-fluoro-4-((2-(3-methoxy-1H-pyrazol-1-yl)pyridin-4-yl)oxy)phenyl)amino)-7H-pyrrolo[2,3-d]pyrimidin-5-yl)piperidin-1-yl)prop-2-en-1-one]"
> 1000,> 1000,50 to 200,50 to 200,50 to 200,"C=CC(=O)N1CCC(c2n[nH]c3ncnc(Nc4ccc(Oc5ccnc(N6C[C@@H](C)O[C@@H](C)C6)c5)cc4F)c23)CC1 [Compound 167, 1-(4-(4-((4-((2-((2R,6S)-2,6-dimethylmorpholino)pyridin-4-yl)oxy)-2-fluorophenyl)amino)-1H-pyrazolo[3,4-d]pyrimidin-3-yl)piperidin-1-yl)prop-2-en-1-one]"
> 1000,50 to 200,< 50,> 1000,< 50,"C=CC(=O)N1CCC(c2c[nH]c3ncnc(Nc4ccc(Oc5ccnc(N6CC(O)(C(F)(F)F)C6)c5)cc4F)c23)CC1 [Compound 144, 1-(4-(4-((2-fluoro-4-((2-(3-hydroxy-3-(trifluoromethyl)azetidin-1-yl)pyridin-4-yl)oxy)phenyl)amino)-7H-pyrrolo[2,3-d]pyrimidin-5-yl)piperidin-1-yl)prop-2-en-1-one]"
> 1000,50 to 200,< 50,< 50,< 50,"C=CC(=O)N1CCC(c2ccn3ncnc(Nc4ccc(Oc5ccnc(N6C[C@@H](C)O[C@@H](C)C6)c5)cc4F)c23)CC1 [Compound 199, 1-(4-(4-((4-((2-((2R,6S)-2,6-dimethylmorpholino)pyridin-4-yl)oxy)-2-fluorophenyl)amino)pyrrolo[2,1-f][1,2,4]triazin-5-yl)piperidin-1-yl)prop-2-en-1-one]"
> 1000,> 1000,> 1000,> 1000,200 to 1000,"C=CC(=O)N1CCC(c2ccn3ncnc(Nc4ccc(Oc5ccn(Cc6cc(C)ccn6)n5)cc4F)c23)CC1 [Compound 197, 1-(4-(4-((2-fluoro-4-((1-((4-methylpyridin-2-yl)methyl)-1H-pyrazol-3-yl)oxy)phenyl)amino)pyrrolo[2,1-f][1,2,4]triazin-5-yl)piperidin-1-yl)prop-2-en-1-one]"
< 50,< 50,< 50,< 50,< 50,"C=CC(=O)N1CCC(c2ccn3ncnc(Nc4ccc(OCc5ccccn5)c(Cl)c4)c23)CC1 [Compound 198, 1-(4-(4-((3-chloro-4-(pyridin-2-ylmethoxy)phenyl)amino)pyrrolo[2,1-f][1,2,4]triazin-5-yl)piperidin-1-yl)prop-2-en-1-one]"
